Data from PubChem BioAssay AID248 (DTP/NCI, 2004).
Several values for one entry are separate records, joined by “and”; a condition that tells them apart may be missing. Equal values may be shown once. Inconclusive results and toxic doses are left out. Rule as the data show it: active = T/C of 150% or more; inactive = T/C below 125%.

Tested on: L1210 leukemia ip in BDF1 mice, survival T/C
Assay: NCI In Vivo Anticancer Drug Screen. Data for tumor model L1210 Leukemia (intraperitoneal) in B6D2F1 (BDF1) mice
Conditions: endpoint: mean survival time, higher = longer survival
Procedure, shortened: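 Mice bearing the transplanted tumor received compound or vehicle. Survival of the treated group was divided by that of the vehicle-treated control group to give the ratio.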

[1] = dose: 100.0 mg/kg/injection, schedule: Q04DX002 (ip), vehicle: Klucel (hydroxypropylcellulose) (HPC)
[2] = dose: 200.0 mg/kg/injection, schedule: Q04DX002 (ip), vehicle: Klucel (hydroxypropylcellulose) (HPC)
[3] = dose: 400.0 mg/kg/injection, schedule: Q04DX002 (ip), vehicle: Klucel (hydroxypropylcellulose) (HPC)
[4] = dose: 400.0 mg/kg/injection, schedule: Q04DX002 (ip), vehicle: saline with Tween-80
[5] = dose: 100.0 mg/kg/injection, schedule: Q01DX001 (ip), vehicle: saline
[6] = dose: 200.0 mg/kg/injection, schedule: Q01DX001 (ip), vehicle: saline
[7] = dose: 400.0 mg/kg/injection, schedule: Q01DX001 (ip), vehicle: saline
[8] = dose: 100.0 mg/kg/injection, schedule: Q04DX003 (ip), vehicle: saline with Tween-80
[9] = dose: 200.0 mg/kg/injection, schedule: Q04DX003 (ip), vehicle: saline with Tween-80
[10] = dose: 400.0 mg/kg/injection, schedule: Q04DX003 (ip), vehicle: saline with Tween-80
[11] = dose: 100.0 mg/kg/injection, schedule: Q04DX003 (ip), vehicle: Klucel (hydroxypropylcellulose) (HPC)
[12] = dose: 200.0 mg/kg/injection, schedule: Q04DX003 (ip), vehicle: Klucel (hydroxypropylcellulose) (HPC)
[13] = dose: 400.0 mg/kg/injection, schedule: Q04DX003 (ip), vehicle: Klucel (hydroxypropylcellulose) (HPC)

Measured: T/C

N#CCc1ccc(Cl)c(Cl)c1
inactive: dose: 5.0 mg/kg/injection, schedule: Q01DX001 (ip), vehicle: saline 100 % of control | dose: 10.0 mg/kg/injection, schedule: Q01DX001 (ip), vehicle: saline 105 % of control | dose: 20.0 mg/kg/injection, schedule: Q01DX001 (ip), vehicle: saline 95 % of control | dose: 40.0 mg/kg/injection, schedule: Q01DX001 (ip), vehicle: saline 95 % of control | dose: 80.0 mg/kg/injection, schedule: Q01DX001 (ip), vehicle: saline 98 % of control

S=C(NCCN1CCCC1)Nc1ccccc1
inactive: dose: 25.0 mg/kg/injection, schedule: Q01DX009 (ip), vehicle: Klucel (hydroxypropylcellulose) (HPC) 119 % of control | dose: 50.0 mg/kg/injection, schedule: Q01DX009 (ip), vehicle: Klucel (hydroxypropylcellulose) (HPC) 104 % of control | dose: 100.0 mg/kg/injection, schedule: Q01DX009 (ip), vehicle: Klucel (hydroxypropylcellulose) (HPC) 97 % of control and 114 % of control

Cc1c2ccc3ccccc3c2cc2cccc(C#N)c12
inactive: dose: 100.0 mg/kg/injection, schedule: Q01DX001 (ip), vehicle: Klucel (hydroxypropylcellulose) (HPC) 106 % of control | dose: 200.0 mg/kg/injection, schedule: Q01DX001 (ip), vehicle: Klucel (hydroxypropylcellulose) (HPC) 98 % of control | dose: 400.0 mg/kg/injection, schedule: Q01DX001 (ip), vehicle: Klucel (hydroxypropylcellulose) (HPC) 98 % of control

O=S(=O)(Cc1ncc2cnccn12)c1ccccc1
inactive: dose: 100.0 mg/kg/injection, schedule: Q04DX003 (ip), vehicle: saline 95 % of control | dose: 200.0 mg/kg/injection, schedule: Q04DX003 (ip), vehicle: saline 103 % of control | dose: 400.0 mg/kg/injection, schedule: Q04DX003 (ip), vehicle: saline 104 % of control

O=C(Oc1ccccc1[N+](=O)[O-])c1ccc(Cl)c(Cl)c1
inactive: [1] 90 % of control | [2] 97 % of control | [3] 100 % of control

CCOC(=O)/C(C#N)=C(\CCc1ccccc1)CC(C)C
inactive: dose: 100.0 mg/kg/injection, schedule: Q04DX002 (ip), vehicle: saline with Tween-80 101 % of control | dose: 200.0 mg/kg/injection, schedule: Q04DX002 (ip), vehicle: saline with Tween-80 101 % of control | [4] 104 % of control

FC(F)(F)C1=N/C(=C2\N=C(C(F)(F)F)N=C2Cl)C(Cl)=N1
inactive: dose: 25.0 mg/kg/injection, schedule: Q01DX009 (ip), vehicle: saline with Tween-80 94 % of control | dose: 50.0 mg/kg/injection, schedule: Q01DX009 (ip), vehicle: saline with Tween-80 96 % of control

Cc1ccc(C)c(N(c2ccccc2N)S(C)(=O)=O)c1
inactive: dose: 50.0 mg/kg/injection, schedule: Q01DX001 (ip), vehicle: saline 95 % of control | [5] 95 % of control | [6] 101 % of control | [7] 90 % of control

Cc1ccc([Si](C)(C)C)cc1
inactive: dose: 25.6 mg/kg/injection, schedule: Q04DX002 (ip), vehicle: saline with Tween-80 90 % of control | dose: 64.0 mg/kg/injection, schedule: Q04DX002 (ip), vehicle: saline with Tween-80 104 % of control | dose: 160.0 mg/kg/injection, schedule: Q04DX002 (ip), vehicle: saline with Tween-80 90 % of control | [4] 90 % of control

CCCC(C)C(=NC)Nc1ccc(Cl)c(Cl)c1 (centres undefined)
inactive: dose: 11.1 mg/kg/injection, schedule: Q01DX Z (ip), vehicle: methylcellulose (MC) 91 % of control | dose: 16.6 mg/kg/injection, schedule: Q01DX Z (ip), vehicle: methylcellulose (MC) 95 % of control

C(=NCCN=Cc1ccccc1)c1ccccc1
inactive: [8] 101 % of control | [9] 95 % of control | [10] 111 % of control

O=C(O)CSC(SCC(=O)O)c1ccccc1
inactive: dose: 50.0 mg/kg/injection, schedule: Q04DX003 (ip), vehicle: Klucel (hydroxypropylcellulose) (HPC) 108 % of control | [11] 107 % of control | [12] 100 % of control | [13] 110 % of control

Cc1nnc(NS(=O)(=O)c2ccc(N=Nc3c(N)[nH]c(=S)[nH]c3=O)cc2)s1
inactive: [5] 100 % of control | [6] 100 % of control | [7] 100 % of control

CCOC(=O)c1cnc(SC)nc1NN=C(C)C
inactive: [11] 92 % of control | [12] 95 % of control | [13] 93 % of control

c1ccc(C2C(c3ccccc3)N2C23CC4CC(CC(C4)C2)C3)cc1 (centres undefined)
inactive: [11] 88 % of control | [12] 94 % of control

O=C1CCN(CCN2CCC(=O)N(Cc3ccccc3)C2=S)C(=S)N1Cc1ccccc1
inactive: [1] 100 % of control | [2] 107 % of control | [3] 96 % of control

CCCCCc1c(CCCC)c(=O)[nH]c2ccccc12
inactive: [5] 97 % of control | [6] 98 % of control | [7] 90 % of control

NC(COC(c1ccccc1)(c1ccccc1)c1ccccc1)C(=O)O (centres undefined)
inactive: dose: 25.0 mg/kg/injection, schedule: Q01DX009 (ip), vehicle: other 100 % of control | dose: 200.0 mg/kg/injection, schedule: Q01DX009 (ip), vehicle: other 98 % of control

O=C(N/N=C/c1cccc([N+](=O)[O-])c1)c1ccc(O)cc1
inactive: [1] 102 % of control | [2] 105 % of control

CC(=O)OCC1OC(n2cnc(C(N)=O)c2N)C(OC(C)=O)C1OC(C)=O (centres undefined)
inactive: dose: 100.0 mg/kg/injection, schedule: Q01DX005 (ip), vehicle: saline 95 % of control | dose: 200.0 mg/kg/injection, schedule: Q01DX005 (ip), vehicle: saline 96 % of control

CC(C)=CC(=O)CC(O)(C(F)(F)F)C(F)(F)Cl (centres undefined)
inactive: dose: 50.0 mg/kg/injection, schedule: Q01DX009 (ip), vehicle: saline 92 % of control | dose: 100.0 mg/kg/injection, schedule: Q01DX009 (ip), vehicle: saline 100 % of control

O=[N+]([O-])c1cc(Cl)c(Cl)cc1[N+](=O)[O-]
inactive: dose: 50.0 mg/kg/injection, schedule: Q04DX002 (ip), vehicle: Klucel (hydroxypropylcellulose) (HPC) 106 % of control | dose: 75.0 mg/kg/injection, schedule: Q04DX002 (ip), vehicle: Klucel (hydroxypropylcellulose) (HPC) 103 % of control | dose: 150.0 mg/kg/injection, schedule: Q04DX002 (ip), vehicle: Klucel (hydroxypropylcellulose) (HPC) 101 % of control and 110 % of control

COC1OC2COC(c3ccccc3)OC2C(OS(=O)(=O)c2ccc(C)cc2)C1OS(=O)(=O)c1ccc(C)cc1 (centres undefined)
inactive: dose: 100.0 mg/kg/injection, schedule: Q01DX009 (ip), vehicle: saline with Tween-80 93 % of control | [8] 88 % of control | dose: 200.0 mg/kg/injection, schedule: Q01DX009 (ip), vehicle: saline with Tween-80 90 % of control | [9] 91 % of control | dose: 400.0 mg/kg/injection, schedule: Q01DX009 (ip), vehicle: saline with Tween-80 95 % of control

ClCN(CCl)CCl
inactive: dose: 50.0 mg/kg/injection, schedule: Q01DX001 (ip), vehicle: carboxymethylcellulose (CMC) 102 % of control | dose: 100.0 mg/kg/injection, schedule: Q01DX001 (ip), vehicle: carboxymethylcellulose (CMC) 94 % of control | dose: 200.0 mg/kg/injection, schedule: Q01DX001 (ip), vehicle: carboxymethylcellulose (CMC) 105 % of control

CCCCC1(CCC)C(=O)NC(=O)NC1=O
inactive: dose: 75.0 mg/kg/injection, schedule: Q01DX001 (ip), vehicle: saline 102 % of control | dose: 150.0 mg/kg/injection, schedule: Q01DX001 (ip), vehicle: saline 96 % of control | dose: 300.0 mg/kg/injection, schedule: Q01DX001 (ip), vehicle: saline 95 % of control

c1cc2ccc1CCc1ccc(cc1)CC2
inactive: dose: 100.0 mg/kg/injection, schedule: Q01DX001 (ip), vehicle: saline with Tween-80 100 % of control | dose: 100.0 mg/kg/injection, schedule: Q01DX009 (ip), vehicle: saline sonified 94 % of control | dose: 200.0 mg/kg/injection, schedule: Q01DX001 (ip), vehicle: saline with Tween-80 102 % of control | dose: 200.0 mg/kg/injection, schedule: Q01DX009 (ip), vehicle: saline sonified 99 % of control | dose: 400.0 mg/kg/injection, schedule: Q01DX001 (ip), vehicle: saline with Tween-80 98 % of control | dose: 400.0 mg/kg/injection, schedule: Q01DX009 (ip), vehicle: saline sonified 93 % of control

CNC(=O)Nc1ccncc1
inactive: [8] 96 % of control | [9] 102 % of control | [10] 91 % of control
